# Results from patent US9994556B2, “Triazole modified coumarin and biphenyl amide-based HSP90 inhibitors” (THE UNIVERSITY OF KANSAS, priority 2014, dated 2018).
# Read-outs that look alike come from different tables or passages of the source.
# Key:
# Assay type in all cases: cell-based
# [1] = system: SKBr3 cells; assay: MTS/PMS cell viability assay, SKBr3; details: Homo sapiens, SK-BR-3, 72 hr, mean ± standard deviation, read-out: IC50 SKBr3
# Protocol: (§1) a) MTS/PMS Cell Viability Assay (SKBr3 and MCF-7 Cells)
# (§2) Cells were maintained in a 1:1 mixture of Advanced DMEM/F12 (Gibco) supplemented with non-essential amino acids, L-glutamine (2 mM), streptomycin (500 μg/mL), penicillin (100 units/mL), and 10% FBS. Cells were grown to confluence in a humidified atmosphere (37° C., 5% CO2), seeded (2000/well, 100 μL) in 96-well plates, and allowed to attach overnight. Compound at varying concentrations in DMSO (1% DMSO final concentration) was added, and cells were returned to the incubator for 72 hr. At 72 hr, the number of viable cells was determined using an MTS/PMS cell proliferation kit (Promega) per the manufacturer's instructions. Cells incubated in 1% DMSO were used at 100% proliferation, and values were adjusted accordingly. IC50 values were calculated from separate experiments performed in triplicate using GraphPad Prism.
# [2] = system: MCF-7 cells; assay: MTS/PMS cell viability assay, MCF-7; details: Homo sapiens, MCF7, 72 hr, mean ± standard deviation, read-out: IC50 MCF-7
# Protocol: as §1, §2
# [3] = system: MDA1986 cell line; assay: Promega CellTiter-Glo (CTG) luminescent assay, MDA1986; details: 72 hr, mean ± standard deviation, read-out: IC50 MDA1986
# Protocol: (§3) b) Promega CellTiter-Glo (CTG) Luminescent Assay
# (§4) Antiproliferative activities against MDA-MB-468LN, MDA1986 and JMAR cell lines were performed with 384-well white plates with the Promega CellTiter-Glo (CTG) luminescent assay with 72 hr compound treatment. Data analysis was performed using GraphPad Prism. Selected data were further checked with MTS/PMS cell viability assay with 96-well plates, which correlated well with Promega CellTiter-Glo luminescent assay.
# [4] = system: MDA-MB-468LN cell line; assay: Promega CellTiter-Glo (CTG) luminescent assay, MDA-MB-468LN; details: Homo sapiens, 72 hr, mean ± standard deviation
# Protocol: as §3, §4
# [5] = system: JMAR cell line; assay: Promega CellTiter-Glo (CTG) luminescent assay, JMAR; details: 72 hr, mean ± standard deviation
# Protocol: as §3, §4
# [6] = system: LNCaP cells; assay: Sulforhodamine B assay, LNCaP; details: Homo sapiens, mean ± standard deviation
# Protocol: (§5) c) Sulforhodamine B Assay
# (§6) The sulforhodamine B assay is used to measure drug-induced cytotoxicity and cell proliferation for large-scale drug-screening applications. Its principle is based on the ability of the protein dye sulforhodamine B to bind electrostatically on pH dependent protein basic amino acid residues of trichloroacetic acid-fixed cells. The aim is to evaluate samples showing selective growth inhibition or cell killing of particular tumor cell lines.
# (§7) The SRB assay is performed by treating cells using a 10 point dose-response curve. The cells are fixed with trichloroacetic acid solution and stained with sulforhodamine B dye. The stained cells are then solubilized with 10 mM Tris buffer and read for absorbance at 565 nm.
# (§8) Percentage growth is calculated at each of the drug concentration levels using the absorbance raw data.
# (§9) Percentage growth inhibition is calculated as: [(Ti−Tz)/(C−Tz)]×100 for concentrations for which Ti≥Tz. [(Ti−Tz)/(Tz)]×100 for concentrations for which Ti<Tz.
# (§10) Ti=Absorbance of wells at a given drug concentration level.
# (§11) Tz=Absorbance time zero wells
# (§12) C=Absorbance of untreated wells (media and cells only)
# (§13) After growth inhibition values have been calculated, the data is plotted on Graphpad Prism software. Data is entered and plotted on a sigmoidal dose-response curve using non-linear regression.
# [7] = system: PC3-MM2 cells; assay: Sulforhodamine B assay, PC3-MM2; details: Homo sapiens, PC3MM2, mean ± standard deviation
# Protocol: as §5, §6, §7, §8, §9, §10, §11, §12, §13
# [8] = Table 2 biphenyl triazole analogues
# [9] = Table 1 coumarin-based triazoles, at least two experiments in triplicate
# [10] = Table 1 coumarin-based triazoles
SMILES,"IC50 [1, 8] [nM]","IC50 [2, 8] [nM]","IC50 [3, 8] [nM]","IC50 [4, 8] [nM]","IC50 [5, 8] [nM]","IC50 [6, 8] [nM]","IC50 [7, 8] [nM]","IC50 [1, 9] [nM]","IC50 [2, 10] [nM]","IC50 [3, 10] [nM]","IC50 [4, 10] [nM]","IC50 [5, 10] [nM]","IC50 [6, 10] [nM]","IC50 [7, 10] [nM]"
"CN1CCC(Oc2ccc(-c3ccc(NC(=O)c4cn(CCc5ccccc5)nn4)cc3)cc2)CC1 [5c, N-(4′-((1-methylpiperidin-4-yl)oxy)-[1,1′-biphenyl]-4-yl)-1l-phenethyl-1H-1,2,3-triazole-4-carboxamide]",190 ± 20,380 ± 100,100 ± 230,360 ± 40,580 ± 460,430 ± 220,830 ± 340,,,,,,,
"Cc1c(OC2CCN(C)CC2)ccc2cc(NC(=O)c3cn(CCCc4ccccc4)nn3)c(=O)oc12 [4s, N-(8-methyl-7-((1-methylpiperidin-4-yl)oxy)-2-oxo-2H-chromen-3-yl)-1-(3-phenylpropyl)-1H-1,2,3-triazole-4-carboxamide]",,,,,,,,1730 ± 50,1650 ± 30,,,,,
"Cc1c(OC2CCN(C)CC2)ccc2cc(NC(=O)c3cn(Cc4ccccc4Cl)nn3)c(=O)oc12 [4p, 1-(2-Chlorobenzyl)-N-(8-methyl-7-((1-methylpiperidin-4-yl)oxy)-2-oxo-2H-chromen-3-yl)-1H-1,2,3-triazole-4-carboxamide]",,,,,,,,1300 ± 70,990 ± 80,3200 ± 1370,2100 ± 520,3700 ± 850,> 100000,6660 ± 5440
"Cc1c(OC2CCN(C)CC2)ccc2cc(NC(=O)c3cn(Cc4ccc(C(C)(C)C)cc4)nn3)c(=O)oc12 [4k, 1-(4-tert-Butylbenzyl)-N-(8-methyl-7-((1-methylpiperidin-4-yl)oxy)-2-oxo-2H-chromen-3-yl)-1H-1,2,3-triazole-4-carboxamide]",,,,,,,,450 ± 30,1220 ± 70,340 ± 90,740 ± 220,580 ± 140,1840,2370
"Cc1ccc(-n2cc(C(=O)Nc3cc4ccc(OC5CCN(C)CC5)c(C)c4oc3=O)nn2)cc1 [4e, 1-(4-methylphenyl)-N-(8-methyl-7-((1-methylpiperidin-4-yl)oxy)-2-oxo-2H-chromen-3-yl)-1H-1,2,3-triazole-4-carboxamide]",,,,,,,,1080 ± 50,1380 ± 70,290,4000 ± 1920,3640,> 100000,> 100000
"CN1CCC(Oc2ccc(-c3ccc(NC(=O)c4cn(CC5CCCCC5)nn4)cc3)cc2)CC1 [5o, 1-(Cyclohexylmethyl)-N-(4′-((1-methylpiperidin-4-yl)oxy)-[1,1′-biphenyl]-4-yl)-1H-1,2,3-triazole-4-carboxamide]",200 ± 20,310 ± 40,380 ± 140,240 ± 60,260 ± 450,480 ± 680,5120 ± 6540,,,,,,,
"Cc1c(OC2CCN(C)CC2)ccc2cc(NC(=O)c3cn(-c4ccc(Br)cc4)nn3)c(=O)oc12 [4d, 1-(4-Bromophenyl)-N-(8-methyl-7-((1-methylpiperidin-4-yl)oxy)-2-oxo-2H-chromen-3-yl)-1H-1,2,3-triazole-4-carboxamide]",,,,,,,,1380 ± 50,5070 ± 1860,2900 ± 330,2800 ± 500,3600 ± 630,15200 ± 9190,3810 ± 4990
"CN1CCC(Oc2ccc(-c3ccc(NC(=O)c4cn(Cc5ccc([N+](=O)[O-])cc5)nn4)cc3)cc2)CC1 [5i, 1-(4-Nitrobenzyl)-N-(4′-((1-methylpiperidin-4-yl)oxy)-[1,1′-biphenyl]-4-yl)-1H-1,2,3-triazole-4-carboxamide]",450 ± 40,550 ± 10,190 ± 170,560 ± 250,210 ± 350,600 ± 340,1030 ± 160,,,,,,,
"CN1CCC(Oc2ccc(-c3ccc(NC(=O)c4cn(Cc5cccc(Cl)c5)nn4)cc3)cc2)CC1 [5k, 1-(3-Chlorobenzyl)-N-(4′-((1-methylpiperidin-4-yl)oxy)-[1,1′-biphenyl]-4-yl)-1H-1,2,3-triazole-4-carboxamide]",390 ± 10,340 ± 20,170 ± 120,170 ± 20,270 ± 40,120 ± 100,350 ± 140,,,,,,,
